Assay results from patent EP2111858A1, “Novel treatment for alzheimer's disease” (EPFL Ecole Polytechnique Fédérale de Lausanne, priority 2008, dated 2009).

Test system: α- and β-secretase cleavage of APP
Experiment: Western blot of intracellular APP-C99 and APP-C83 in rat primary neurons exposed to NMDAR modulators
Format: cell-based
Details: 15 DIV, compared to the untreated control, NMDA, D-serine 30µM for 3 minutes, memantine 30µM for 16 hours, DAPT 1 µM for 16 hours
Description: Neuronal cultures and treatments. Cortical and hippocampal neurons were cultured as described^27 from postnatal day 0 rats or mice and all treatments described bellow carried out at 15 days in vitro (DIV). Stimulations with 30µM N-methyl-D-aspartate (NMDA, Tocris), 30µM D-serine (the D isoform of the amino acid serine, Sigma), or a combination of NMDA + D-serine (30µM each) were carried out for 3 minutes and neurons transferred into trophically enriched medium and further incubated for 16 hours. Treatments with 30µM 1-amino-3,5-dimethyladamantane (memantine, Lucerna-Chem), 1 µM N-[N-(3,5-difluorophenacetyl)-L-alanyl]-S-phenylgly cine t-butyl ester (DAPT, ), and 1 µM phorbol 12-myristate 13-acetate (PMA, Sigma) were carried out for 16 hours. Pre-treatments with 1 µM TAPI-1 (Calbiochem), 1 µM GL189 (Calbiochem), 1,2-bis(o-aminophenoxy)ethane-N,N,N',N'-tetraacetic acid (BAPTA, Sigma), H-89, chelerythrine, or KN-62 (Biaffin GmbH & Co KG) were carried out for 1 hour. Next, neurons were treated (or not) with NMDA or NMDA + D-serine as described above, and cells transferred into trophically enriched medium and incubated for additional 15 hours. Whole cell lysates were prepared for Western blot analysis as described below.
Western blotting and antibodies. Cells were washed with cold phosphate-bufferd saline containing 2 mM EDTA and homogenized in 50 mM Tris-HCL pH 7.4, 350 mM NaCl, 100 mM DTT, 0.1% SDS, 0.5% NP-40 and a cocktail of protease inhibitors (Roche Diagnostics). Protein whole cell extracts were separated on 4-12% Bis-tris gels (Invitrogen) and transferred onto nitrocellulose membranes to detect APP-FL, APP-C99, APP-C83 and AICD (CT15, Sigma), sAPPα (6E10, Signet), Notch-FL and NICD (Sigma), ADAM10 (Calbiochem), ADAM17 (Calbiochem), BACE1 (EE17, Sigma), NCT (NCT164, BD Bioscience), PS1-FL and PS1-NTF (MAB1536, Chemicon International), Pen-2 (UD-1, 1:500, a gift of Helena Karlström), and β-Action (Sigma).

Row | SMILES | intracellular accumulation of APP-C99 and APP-C83
1 | C[C@H](NC(=O)Cc1cc(F)cc(F)c1)C(=O)N[C@H](C(=O)OC(C)(C)C)c1ccccc1 [DAPT, N-[N-(3,5-difluorophenacetyl)-L-alanyl]-S-phenylglycine t-butyl ester] | increased levels of both APP-C83 and APP-C99
2 | N[C@H](CO)C(=O)O [D-serine] | did not affect the production of APP-C99/APP-C83
3 | CC12CC3CC(C)(C1)CC(N)(C3)C2 [memantine, 1-amino-3,5-dimethyladamantane] | triggered the accumulation of APP-C83
